Measurements published in patent US9884065B2, “Inhibiting activity of senescent cells using a glucocorticoid” (Buck Institute for Research on Aging, priority 2011, dated 2018).

Key:
IL-6 = IL-6 ELISA, HCA2 cells induced to senesce by oncogenic RAS or MKK6 overexpression; type: cell-based, human; conditions: 500 nM corticosterone, 100 nM cortisol, 6 days
Method: (FIG. 12A) Senescent X-irradiated with 10 Gy (Sen (XRA)) HCA2 fibroblasts were incubated in medium plus 10% serum containing the indicated concentrations of corticosterone or the highest concentration of DMSO (vehicle control). The cells were given corticosterone or DMSO immediately after irradiation and analyzed 6 days later. The cells were washed and incubated in serum-free medium without corticosterone to generate conditioned media. Conditioned media from pre-senescent (Pre) and control or corticosterone-treated Sen (XRA) cells were analyzed by ELISA for IL-6. (FIG. 12B) Cells were treated, and conditioned media were generated and analyzed as described in (FIG. 12A) except cortisol was used at the indicated concentrations. (FIG. 12C) Conditioned media were collected from presenescent (PRE) or senescent (XRA) cells that were treated with DMSO, corticosterone ([…]), or cortisol (100 nM) as described in (FIG. 12A). The conditioned media were analyzed by antibody arrays. Average signal from PRE and XRA DMSO cells was used as the baseline. Signals higher than baseline are light gray (see +1 on scale to right); signals lower than baseline are dark gray as illustrated by PRE DMSO (see −1 on scale at right). […]
Conditioned media were filtered and stored at −80° C. Cell numbers were determined in every experiment. […] Data were normalized and expressed as pg/ml/cell/24 h.

[1] = biological target: T1, glucocorticoid receptor (GR) (Homo sapiens, UniProt P04150); test: Immunostaining for GR localization in HCA2 cells; type: cell-based; conditions: senescent HCA2 cells; 500 nM corticosterone or 100 nM cortisol
T1 construct: endogenous in cells; host or cells: HCA2 human fibroblasts
T1 sequence (P04150 1-777): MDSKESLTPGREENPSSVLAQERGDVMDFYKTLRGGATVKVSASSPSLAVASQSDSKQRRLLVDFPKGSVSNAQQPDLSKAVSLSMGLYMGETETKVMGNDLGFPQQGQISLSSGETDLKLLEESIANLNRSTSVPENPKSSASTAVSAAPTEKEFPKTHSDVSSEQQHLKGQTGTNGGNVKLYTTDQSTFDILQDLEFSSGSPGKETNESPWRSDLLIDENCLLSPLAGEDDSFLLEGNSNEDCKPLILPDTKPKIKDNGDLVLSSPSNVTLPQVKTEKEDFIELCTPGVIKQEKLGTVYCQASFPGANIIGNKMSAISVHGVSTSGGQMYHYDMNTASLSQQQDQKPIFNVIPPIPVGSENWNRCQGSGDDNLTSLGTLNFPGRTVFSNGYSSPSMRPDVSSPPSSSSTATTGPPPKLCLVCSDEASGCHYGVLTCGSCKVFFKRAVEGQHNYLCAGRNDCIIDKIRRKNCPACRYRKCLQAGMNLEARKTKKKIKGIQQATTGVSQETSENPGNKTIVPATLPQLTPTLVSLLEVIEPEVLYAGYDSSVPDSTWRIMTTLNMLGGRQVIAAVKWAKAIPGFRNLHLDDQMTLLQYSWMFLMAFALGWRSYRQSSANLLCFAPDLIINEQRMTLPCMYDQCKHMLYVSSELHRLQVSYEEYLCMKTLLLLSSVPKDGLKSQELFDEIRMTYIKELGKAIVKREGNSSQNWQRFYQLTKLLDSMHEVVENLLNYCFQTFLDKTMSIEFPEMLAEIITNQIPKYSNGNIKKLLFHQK
Method: (§1) Cells were cultured in 8-well chamber slides, fixed in 4% formaldehyde (Sigma) for 10 min at 4° C. and permeabilized in PBS-0.5% Triton for 10 min in 4° C.

NF-κB [2] = test: NF-κB DNA binding activity in nuclear extracts (TransAM NF-κB p65 kit); type: cell-based, human; conditions: senescent cells; 500 nM corticosterone or 100 nM cortisol
Method: (§2) Nuclear extracts were prepared using the nuclear extract kit (Active Motif), and NF-κB DNA binding was determined using the TransAM NF-κB p65 kit (Active Motif). For transactivation assays, cells infected with the NF-κB reporter-luciferase lentivirus were lysed in buffer (Promega), and luciferase activity was normalized to cell number, as described (Freund et al., 2011, EMBO J. 30:1536-1548).

NF-κB [3] = test: NF-κB reporter-luciferase transactivation assay; type: cell-based, human; conditions: senescent cells; 500 nM corticosterone or 100 nM cortisol
Method: as §2

IL-1α = test: Immunostaining for IL-1α in HCA2 cells; type: cell-based, human; conditions: senescent cells 7 days after irradiation; 500 nM corticosterone or 100 nM cortisol
Method: (FIG. 14B) mRNA extracted from cells described in (FIG. 14A) was used to quantify transcripts for IL-6 (normalized to tubulin). (FIG. 14C) Pre and Sen (XRA) cells, prepared as described in (FIG. 14A), were immunostained for IL-1α. Sen (XRA) cells were immunostained 7 days after irradiation.
as §1

[4] = tested on: T47D human breast cancer cells; test: Invasion assay: conditioned media from HCA2 fibroblasts stimulating T47D invasion of basement membrane; type: cell-based; conditions: HCA2 fibroblasts treated with corticosterone or cortisol for 10 d
Method: T47D human breast cancer cells (120,000 cells/well) were plated atop a layer of Matrigel in the upper chambers of Transwells (BD Biosciences). The lower chambers contained conditioned media from pre-senescent or senescent HCA2 fibroblasts treated with corticosterone or cortisol for 10 d. After 18 h, cells that migrated to the underside of the upper chamber filter were stained and counted, as described (Coppe et al., 2008, PLoS Biol. 6:2853-2868; Coppe et al., 2010, PLoS ONE 5:e9188).

For `C[C@]12CCC(=O)C=C1CC[C@@H]1[C@@H]2[C@@H](O)C[C@@]2(C)[C@H]1CC[C@]2(O)C(=O)CO` [cortisol], the “suppression of senescence-associated IL-6 secretion” value (IL-6) was “effective”, the GR localization [1] was “translocated into the nucleus” and the “NF-κB DNA binding” value (NF-κB [2]) was “significantly decreased”. The NF-κB transactivation activity (NF-κB [3]) was “significantly decreased”, the “expression of IL-1α protein (nuclear staining)” value (IL-1α) was “suppressed expression of IL-1α protein” and the “ability of senescent conditioned media to stimulate T47D invasiveness” value [4] was “near-presenescent levels”.
`C[C@]12C[C@H](O)[C@H]3[C@@H](CCC4=CC(=O)CC[C@@]43C)[C@@H]1CC[C@@H]2C(=O)CO` [corticosterone] was tested, and the “suppression of senescence-associated IL-6 secretion” value (IL-6) was “effective”, the GR localization [1] was “translocated into the nucleus” and the “NF-κB DNA binding” value (NF-κB [2]) was “significantly decreased”. For the same compound, the NF-κB transactivation activity (NF-κB [3]) was “significantly decreased”, the “expression of IL-1α protein (nuclear staining)” value (IL-1α) was “suppressed expression of IL-1α protein” and the “ability of senescent conditioned media to stimulate T47D invasiveness” value [4] was “near-presenescent levels”.
